Assay results as given in PMC6941823, “A dispensable paralog of succinate dehydrogenase subunit C mediates standing resistance towards a subclass of SDHI fungicides in Zymoseptoria tritici” (PLoS Pathogens, 2019).
Read-outs that look alike come from different tables or passages of the source.

Key:
[1] = tested on: Zymoseptoria tritici progeny isolates; assay type: cell-based; conditions: for phenotype flag S (sensitive): 1 = sensitive; for Phenotype sensitive (S) flag: fluopyram 10 mg.L^-1 agar, 1 in S column; for phenotype flag, sensitive (S): growth on fluopyram 10 mg.L^-1 agar; for phenotype flag, sensitive (S) / Phenotyping Growth Fluopyram 10ppm Sensitive: 1 = scored sensitive; for Phenotype scored sensitive (S): agar growth on fluopyram 10 mg.L^-1, 1 = scored in this class
[2] = biological target: SQR of 06STD024 (SDHC / altC) mitochondria (Zymoseptoria tritici, UniProt A0A1X7RQW2+F9X9V6+F9XH52+O42772); test: Succinate-quinone (SQR) SDHI sensitivity assay on purified mitochondria, 06STD024; assay type: biochemical
Summary of the method: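 Succinate:ubiquinone/DCPIP reductase inhibition measured on purified mitochondria from Zymoseptoria tritici strains carrying either a single C-subunit gene (ZtSDHC1, ZtSDHC1_A84I or ZtSDHC3) or both ZtSDHC1 and ZtSDHC3; pTet::SDHC3 transformant tested under repressed and induced conditions.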

Sequence of SQR of 06STD024 (SDHC / altC) mitochondria (A0A1X7RQW2 36-181): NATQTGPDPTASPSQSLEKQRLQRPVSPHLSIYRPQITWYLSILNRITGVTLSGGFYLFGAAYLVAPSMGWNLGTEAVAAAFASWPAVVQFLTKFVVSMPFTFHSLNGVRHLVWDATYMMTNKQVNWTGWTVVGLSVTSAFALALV
Sequence of SQR of 06STD024 (SDHC / altC) mitochondria (O42772 19-297): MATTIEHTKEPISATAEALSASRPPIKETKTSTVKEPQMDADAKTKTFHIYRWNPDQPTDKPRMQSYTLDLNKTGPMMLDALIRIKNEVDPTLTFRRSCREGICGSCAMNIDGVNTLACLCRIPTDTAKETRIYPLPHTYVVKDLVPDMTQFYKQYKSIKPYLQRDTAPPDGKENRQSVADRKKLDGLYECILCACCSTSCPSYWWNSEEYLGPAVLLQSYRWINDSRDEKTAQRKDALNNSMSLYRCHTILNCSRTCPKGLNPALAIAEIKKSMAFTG
Sequence of SQR of 06STD024 (SDHC / altC) mitochondria (F9X9V6 1-193): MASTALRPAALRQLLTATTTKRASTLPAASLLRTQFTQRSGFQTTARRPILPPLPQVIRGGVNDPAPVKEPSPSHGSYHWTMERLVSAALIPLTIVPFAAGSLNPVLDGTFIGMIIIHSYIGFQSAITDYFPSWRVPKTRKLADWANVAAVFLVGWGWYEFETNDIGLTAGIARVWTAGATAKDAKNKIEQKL
Sequence of SQR of 06STD024 (SDHC / altC) mitochondria (F9XH52 44-187): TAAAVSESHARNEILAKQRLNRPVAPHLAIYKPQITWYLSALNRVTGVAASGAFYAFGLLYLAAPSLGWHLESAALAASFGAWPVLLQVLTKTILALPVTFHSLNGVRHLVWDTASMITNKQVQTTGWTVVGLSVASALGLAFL
Sequence of SQR of 06STD024 (SDHC / altC) mitochondria (F9WWR1 29-643 partner): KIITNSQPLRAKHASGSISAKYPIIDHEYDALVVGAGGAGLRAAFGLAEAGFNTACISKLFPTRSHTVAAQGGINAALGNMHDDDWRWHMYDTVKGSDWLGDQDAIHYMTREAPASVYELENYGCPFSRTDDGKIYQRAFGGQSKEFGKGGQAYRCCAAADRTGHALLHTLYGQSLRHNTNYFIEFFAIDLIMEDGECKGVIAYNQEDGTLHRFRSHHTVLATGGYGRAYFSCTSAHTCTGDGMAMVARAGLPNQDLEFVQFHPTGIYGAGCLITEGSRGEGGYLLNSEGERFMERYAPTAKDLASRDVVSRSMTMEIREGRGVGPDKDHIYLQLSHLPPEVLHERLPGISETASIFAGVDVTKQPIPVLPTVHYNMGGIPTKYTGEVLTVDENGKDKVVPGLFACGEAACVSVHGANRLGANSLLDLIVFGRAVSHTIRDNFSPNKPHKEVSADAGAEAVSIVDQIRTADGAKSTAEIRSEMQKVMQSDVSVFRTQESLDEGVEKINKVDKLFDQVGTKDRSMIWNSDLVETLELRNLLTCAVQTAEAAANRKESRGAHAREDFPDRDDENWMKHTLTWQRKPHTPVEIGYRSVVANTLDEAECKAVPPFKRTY

O=C(NCCc1ncc(C(F)(F)F)cc1Cl)c1ccccc1C(F)(F)F [Fluopyram]
phenotype flag S (sensitive) ([1]; progeny isolate 25, cross IPO323XD024): 1
phenotype flag S (sensitive) ([1]; progeny isolate 27, cross IPO323XD024): 1
phenotype flag S (sensitive) ([1]; progeny isolate 28, cross IPO323XD024): 1
phenotype flag S (sensitive) ([1]; progeny isolate 31, cross IPO323XD024): 1
phenotype flag S (sensitive) ([1]; progeny isolate 32, cross IPO323XD024): 1
phenotype flag S (sensitive) ([1]; progeny isolate 34, cross IPO323XD024): 1
phenotype flag S (sensitive) ([1]; progeny isolate 37, cross IPO323XD024): 1
phenotype flag S (sensitive) ([1]; progeny isolate 39, cross IPO323XD024): 1
phenotype flag S (sensitive) ([1]; progeny isolate 40, cross IPO323XD024): 1
phenotype flag S (sensitive) ([1]; progeny isolate 43, cross IPO323XD024): 1
phenotype flag S (sensitive) ([1]; progeny isolate 46, cross IPO323XD024): 1
phenotype flag S (sensitive) ([1]; progeny isolate 49, cross IPO323XD024): 1
phenotype flag S (sensitive) ([1]; progeny isolate 50, cross IPO323XD024): 1
phenotype flag S (sensitive) ([1]; progeny isolate 51, cross IPO323XD024): 1
phenotype flag S (sensitive) ([1]; progeny isolate 53, cross IPO323XD024): 1
phenotype flag S (sensitive) ([1]; progeny isolate 54, cross IPO323XD024): 1
phenotype flag S (sensitive) ([1]; progeny isolate 55, cross IPO323XD024): 1
phenotype flag S (sensitive) ([1]; progeny isolate 56, cross IPO323XD024): 1
phenotype flag S (sensitive) ([1]; progeny isolate 57, cross IPO323XD024): 1
phenotype flag S (sensitive) ([1]; progeny isolate 59, cross IPO323XD024): 1
phenotype flag S (sensitive) ([1]; progeny isolate 60, cross IPO323XD024): 1
phenotype flag S (sensitive) ([1]; progeny isolate 62, cross IPO323XD024): 1
phenotype flag S (sensitive) ([1]; progeny isolate 63, cross IPO323XD024): 1
phenotype flag S (sensitive) ([1]; progeny isolate 65, cross IPO323XD024): 1
phenotype scored sensitive (S), flag 1 ([1]; progeny isolate 67, cross IPO323XD024, fluopyram 10 mg.L^-1 agar): 1
phenotype scored sensitive (S), flag 1 ([1]; progeny isolate 71, cross IPO323XD024, fluopyram 10 mg.L^-1 agar): 1
phenotype scored sensitive (S), flag 1 ([1]; progeny isolate 72, cross IPO323XD024, fluopyram 10 mg.L^-1 agar): 1
phenotype scored sensitive (S), flag 1 ([1]; progeny isolate 75, cross IPO323XD024, fluopyram 10 mg.L^-1 agar): 1
phenotype scored sensitive (S), flag 1 ([1]; progeny isolate 77, cross IPO323XD024, fluopyram 10 mg.L^-1 agar): 1
phenotype scored sensitive (S), flag 1 ([1]; progeny isolate 78, cross IPO323XD024, fluopyram 10 mg.L^-1 agar): 1
phenotype scored sensitive (S), flag 1 ([1]; progeny isolate 82, cross IPO323XD024, fluopyram 10 mg.L^-1 agar): 1
phenotype scored sensitive (S), flag 1 ([1]; progeny isolate 83, cross IPO323XD024, fluopyram 10 mg.L^-1 agar): 1
phenotype scored sensitive (S), flag 1 ([1]; progeny isolate 84, cross IPO323XD024, fluopyram 10 mg.L^-1 agar): 1
phenotype scored sensitive (S), flag 1 ([1]; progeny isolate 88, cross IPO323XD024, fluopyram 10 mg.L^-1 agar): 1
phenotype scored sensitive (S), flag 1 ([1]; progeny isolate 89, cross IPO323XD024, fluopyram 10 mg.L^-1 agar): 1
phenotype scored sensitive (S), flag 1 ([1]; progeny isolate 90, cross IPO323XD024, fluopyram 10 mg.L^-1 agar): 1
phenotype scored sensitive (S), flag 1 ([1]; progeny isolate 91, cross IPO323XD024, fluopyram 10 mg.L^-1 agar): 1
phenotype scored sensitive (S), flag 1 ([1]; progeny isolate 92, cross IPO323XD024, fluopyram 10 mg.L^-1 agar): 1
phenotype scored sensitive (S), flag 1 ([1]; progeny isolate 102, cross IPO323XD024, fluopyram 10 mg.L^-1 agar): 1
phenotype scored sensitive (S), flag 1 ([1]; progeny isolate 103, cross IPO323XD024, fluopyram 10 mg.L^-1 agar): 1
phenotype scored sensitive (S), flag 1 ([1]; progeny isolate 106, cross IPO323XD024, fluopyram 10 mg.L^-1 agar): 1
phenotype scored sensitive (S), flag 1 ([1]; progeny isolate 107, cross IPO323XD024, fluopyram 10 mg.L^-1 agar): 1
Phenotype sensitive (S) flag ([1]; progeny isolate 150 of cross IPO323XD024): 1
Phenotype sensitive (S) flag ([1]; progeny isolate 151 of cross IPO323XD024): 1
Phenotype sensitive (S) flag ([1]; progeny isolate 152 of cross IPO323XD024): 1
Phenotype sensitive (S) flag ([1]; progeny isolate 153 of cross IPO323XD024): 1
Phenotype sensitive (S) flag ([1]; progeny isolate 155 of cross IPO323XD024): 1
Phenotype sensitive (S) flag ([1]; progeny isolate 156 of cross IPO323XD024): 1
Phenotype sensitive (S) flag ([1]; progeny isolate 158 of cross IPO323XD024): 1
Phenotype sensitive (S) flag ([1]; progeny isolate 161 of cross IPO323XD024): 1
Phenotype sensitive (S) flag ([1]; progeny isolate 162 of cross IPO323XD024): 1
Phenotype sensitive (S) flag ([1]; progeny isolate 163 of cross IPO323XD024): 1
Phenotype sensitive (S) flag ([1]; progeny isolate 166 of cross IPO323XD024): 1
Phenotype sensitive (S) flag ([1]; progeny isolate 168 of cross IPO323XD024): 1
Phenotype sensitive (S) flag ([1]; progeny isolate 169 of cross IPO323XD024): 1
Phenotype sensitive (S) flag ([1]; progeny isolate 173 of cross IPO323XD024): 1
Phenotype sensitive (S) flag ([1]; progeny isolate 174 of cross IPO323XD024): 1
Phenotype sensitive (S) flag ([1]; progeny isolate 175 of cross IPO323XD024): 1
Phenotype sensitive (S) flag ([1]; progeny isolate 176 of cross IPO323XD024): 1
Phenotype sensitive (S) flag ([1]; progeny isolate 177 of cross IPO323XD024): 1
Phenotype sensitive (S) flag ([1]; progeny isolate 182 of cross IPO323XD024): 1
Phenotype sensitive (S) flag ([1]; progeny isolate 184 of cross IPO323XD024): 1
Phenotype sensitive (S) flag ([1]; progeny isolate 185 of cross IPO323XD024): 1
phenotype flag, sensitive (S) ([1]; progeny isolate 192, cross IPO323XD024): 1
phenotype flag, sensitive (S) ([1]; progeny isolate 193, cross IPO323XD024): 1
phenotype flag, sensitive (S) ([1]; progeny isolate 195, cross IPO323XD024): 1
phenotype flag, sensitive (S) ([1]; progeny isolate 197, cross IPO323XD024): 1
phenotype flag, sensitive (S) ([1]; progeny isolate 201, cross IPO323XD024): 1
phenotype flag, sensitive (S) ([1]; progeny isolate 207, cross IPO323XD024): 1
phenotype flag, sensitive (S) ([1]; progeny isolate 209, cross IPO323XD024): 1
phenotype flag, sensitive (S) ([1]; progeny isolate 210, cross IPO323XD024): 1
phenotype flag, sensitive (S) ([1]; progeny isolate 211, cross IPO323XD024): 1
phenotype flag, sensitive (S) ([1]; progeny isolate 215, cross IPO323XD024): 1
phenotype flag, sensitive (S) ([1]; progeny isolate 217, cross IPO323XD024): 1
phenotype flag, sensitive (S) ([1]; progeny isolate 218, cross IPO323XD024): 1
phenotype flag, sensitive (S) ([1]; progeny isolate 220, cross IPO323XD024): 1
phenotype flag, sensitive (S) ([1]; progeny isolate 221, cross IPO323XD024): 1
phenotype flag, sensitive (S) ([1]; progeny isolate 223, cross IPO323XD024): 1
phenotype flag, sensitive (S) ([1]; progeny isolate 224, cross IPO323XD024): 1
phenotype flag, sensitive (S) ([1]; progeny isolate 225, cross IPO323XD024): 1
phenotype flag, sensitive (S) ([1]; progeny isolate 227, cross IPO323XD024): 1
phenotype flag, sensitive (S) ([1]; progeny isolate 228, cross IPO323XD024): 1
phenotype flag, sensitive (S) ([1]; progeny isolate 229, cross IPO323XD024): 1
Phenotype scored sensitive (S) ([1]; progeny isolate 230 of cross IPO323 x D024): 1
Phenotype scored sensitive (S) ([1]; progeny isolate 235 of cross IPO323 x D024): 1
Phenotype scored sensitive (S) ([1]; progeny isolate 237 of cross IPO323 x D024): 1
Phenotype scored sensitive (S) ([1]; progeny isolate 238 of cross IPO323 x D024): 1
Phenotype scored sensitive (S) ([1]; progeny isolate 239 of cross IPO323 x D024): 1
Phenotyping Growth Fluopyram 10ppm Sensitive ([1]; progeny strain 3, cross IPO323XD024): 1
Phenotyping Growth Fluopyram 10ppm Sensitive ([1]; progeny strain 10, cross IPO323XD024): 1
Phenotyping Growth Fluopyram 10ppm Sensitive ([1]; progeny strain 13, cross IPO323XD024): 1
Phenotyping Growth Fluopyram 10ppm Sensitive ([1]; progeny strain 14, cross IPO323XD024): 1
Phenotyping Growth Fluopyram 10ppm Sensitive ([1]; progeny strain 16, cross IPO323XD024): 1
Phenotyping Growth Fluopyram 10ppm Sensitive ([1]; progeny strain 17, cross IPO323XD024): 1
Phenotyping Growth Fluopyram 10ppm Sensitive ([1]; progeny strain 18, cross IPO323XD024): 1
Phenotyping Growth Fluopyram 10ppm Sensitive ([1]; progeny strain 19, cross IPO323XD024): 1
Phenotyping Growth Fluopyram 10ppm Sensitive ([1]; progeny strain 20, cross IPO323XD024): 1
Phenotyping Growth Fluopyram 10ppm Sensitive ([1]; progeny strain 21, cross IPO323XD024): 1
Phenotyping Growth Fluopyram 10ppm Sensitive ([1]; progeny strain 23, cross IPO323XD024): 1
Phenotyping Growth Fluopyram 10ppm Sensitive ([1]; strain D024 (parent), cross IPO323XD024, 0 = not): 0
Phenotyping Growth Fluopyram 10ppm Sensitive ([1]; strain IPO323 (parent), cross IPO323XD024, 0 = not): 1
RF (resistance factor), 06STD024 (SDHC / altC) ([2]; IC50 ratio compared to IPO323 values): 111.3
IC50 ([2]; mitochondria of field isolate 06STD024, mean of three ± SD): 1.39 ± 0.522 µM
